According to patent publication US9695155B2, “Herbicidal substituted pyrimidinyloxy benzene compounds” (E. I. DU PONT DE NEMOURS AND COMPANY, priority 2013, dated 2017):

Tests used:
[1] = tested on: wheat; test: Test A postemergence; format: in vivo, Triticum aestivum
Procedure, shortened: (§1)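 Scoring: eye-based comparison with untreated controls, 0 for no effect through 100 for complete control, at about day 10. Treatments: directed soil spray preemergence; foliar spray postemergence on 2–10 cm plants at the one- to two-leaf stage. Medium: loam soil with sand.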

[2] = tested on: sedge, umbrella; test: Test B flooded paddy test; format: in vivo, Cyperus difformis; conditions: Flood, 250 g ai/ha; 0 to 100 scale where 0 is no effect and 100 is complete control
Procedure, shortened: (§2)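 Compound added straight to paddy water, with pots kept flooded 3 cm above soil, on plants grown to the 2-leaf stage. Visual scoring 0-100 (100 = complete control) against untreated controls after 13 to 15 greenhouse days.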

[3] = tested on: corn; test: Test A postemergence; format: in vivo, Zea mays
Procedure, shortened: as §1

[4] = tested on: barnyardgrass; test: Test B flooded paddy test; format: in vivo, Echinochloa crus-galli; conditions: Flood, 250 g ai/ha; 0 to 100 scale where 0 is no effect and 100 is complete control
Procedure, shortened: as §2

[5] = tested on: large (Lg) crabgrass; test: Test A preemergence; format: in vivo, Digitaria sanguinalis; conditions: for Crabgrass, Large plant response rating (0 to 100 scale): 125 g ai/ha
Procedure, shortened: as §1

[6] = tested on: giant foxtail; test: Test A preemergence; format: in vivo, Setaria faberii; conditions: for Foxtail, Giant plant response rating (0 to 100 scale): 125 g ai/ha
Procedure, shortened: as §1

[7] = tested on: morningglory; test: Test A postemergence; format: in vivo, Ipomoea spp.
Procedure, shortened: as §1

[8] = tested on: velvetleaf; test: Test A postemergence; format: in vivo, Abutilon theophrasti
Procedure, shortened: as §1

[9] = tested on: corn; test: Test A preemergence; format: in vivo, Zea mays; conditions: for Corn plant response rating (0 to 100 scale): 125 g ai/ha
Procedure, shortened: as §1

[10] = tested on: wheat; test: Test A preemergence; format: in vivo, Triticum aestivum; conditions: for Wheat plant response rating (0 to 100 scale): 125 g ai/ha
Procedure, shortened: as §1

[11] = tested on: velvetleaf; test: Test A preemergence; format: in vivo, Abutilon theophrasti; conditions: for Velvetleaf plant response rating (0 to 100 scale): 125 g ai/ha
Procedure, shortened: as §1

[12] = tested on: barnyardgrass; test: Test A postemergence; format: in vivo, Echinochloa crus-galli
Procedure, shortened: as §1

[13] = tested on: morningglory; test: Test A preemergence; format: in vivo, Ipomoea spp.; conditions: for Morningglory plant response rating (0 to 100 scale): 125 g ai/ha
Procedure, shortened: as §1

[14] = tested on: large (Lg) crabgrass; test: Test A postemergence; format: in vivo, Digitaria sanguinalis
Procedure, shortened: as §1

[15] = tested on: barnyardgrass; test: Test A preemergence; format: in vivo, Echinochloa crus-galli; conditions: for Barnyardgrass plant response rating (0 to 100 scale, 0 is no effect, 100 is complete control): 125 g ai/ha
Procedure, shortened: as §1

[16] = tested on: giant foxtail; test: Test A postemergence; format: in vivo, Setaria faberii
Procedure, shortened: as §1

[17] = tested on: pigweed; test: Test A preemergence; format: in vivo, Amaranthus retroflexus; conditions: for Pigweed plant response rating (0 to 100 scale): 125 g ai/ha
Procedure, shortened: as §1

[18] = tested on: pigweed; test: Test A postemergence; format: in vivo, Amaranthus retroflexus
Procedure, shortened: as §1

[19] = tested on: rice; test: Test B flooded paddy test; format: in vivo, Oryza sativa; conditions: Flood, 250 g ai/ha; 0 to 100 scale where 0 is no effect and 100 is complete control
Procedure, shortened: as §2

[20] = tested on: Heteranthera limosa; test: Test B flooded paddy test; format: in vivo; conditions: Flood, 250 g ai/ha; 0 to 100 scale where 0 is no effect and 100 is complete control
Procedure, shortened: as §2

[21] = 125 g ai/ha, 0 to 100 scale, 0 no effect, 100 complete control
[22] = 500 g ai/ha, 0 to 100 scale where 0 is no effect and 100 is complete control
[23] = 1000 g ai/ha, 0 to 100 scale, 0 no effect, 100 complete control
[24] = 1000 g ai/ha, 0 to 100 scale, 0 no effect, 100 complete control, approx. 10 days

SMILES	Plant response rating, Wheat [1, 21]	Plant response rating, Wheat [1, 22]	Plant response rating, Sedge, Umbrella [2]	Plant response rating, Corn [3, 21]	Plant response rating, Corn [3, 22]	Plant response rating, Barnyardgrass [4]	Crabgrass, Large plant response rating (0 to 100 scale) [5]	Crabgrass, Large plant response rating [5, 22]	Foxtail, Giant plant response rating (0 to 100 scale) [6]	Foxtail, Giant plant response rating [6, 22]	Plant response rating, Morningglory [7, 21]	Plant response rating, Morningglory [7, 22]	Plant response rating, Velvetleaf [8, 21]	Plant response rating, Velvetleaf [8, 22]	Corn plant response rating (0 to 100 scale) [9]	Corn plant response rating [9, 22]	Wheat plant response rating (0 to 100 scale) [10]	Wheat plant response rating [10, 22]	Plant response rating, Rice [19]	Plant response rating, Ducksalad [20]	also measured
CNN=Cc1cccc(Oc2ncc(Cl)cn2)c1-n1cc(Br)cn1 [Compound 289]	0	0	0	0	10	0	0	10	0	10	20	50	10	40	0	0	0	0	0	0	Velvetleaf plant response rating (0 to 100 scale) [11]: 0; Velvetleaf plant response rating [11, 22]: 10; Plant response rating, Barnyardgrass [12, 21]: 0; Plant response rating, Barnyardgrass [12, 22]: 20; Morningglory plant response rating (0 to 100 scale) [13]: 0; Morningglory plant response rating [13, 22]: 0; Plant response rating, Crabgrass, Large [14, 21]: 0; Plant response rating, Crabgrass, Large [14, 22]: 20; Barnyardgrass plant response rating (0 to 100 scale, 0 is no effect, 100 is complete control) [15]: 0; Barnyardgrass plant response rating [15, 22]: 20; Plant response rating, Foxtail, Giant [16, 21]: 0; Plant response rating, Foxtail, Giant [16, 22]: 30; Pigweed plant response rating (0 to 100 scale) [17]: 20; Pigweed plant response rating [17, 22]: 100; Plant response rating, Pigweed [18, 21]: 100; Plant response rating, Pigweed [18, 22]: 100
Clc1cnc(Oc2cccc(-c3cccnc3)c2-n2cc(Br)cn2)nc1 [Compound 290]	0	0	0	0	10	0	0	10	0	10	0	10	10	30	0	0	0	0	0	0	Velvetleaf plant response rating (0 to 100 scale) [11]: 0; Velvetleaf plant response rating [11, 22]: 0; Plant response rating, Barnyardgrass [12, 21]: 0; Plant response rating, Barnyardgrass [12, 22]: 0; Morningglory plant response rating (0 to 100 scale) [13]: 0; Morningglory plant response rating [13, 22]: 0; Plant response rating, Crabgrass, Large [14, 21]: 0; Plant response rating, Crabgrass, Large [14, 22]: 10; Barnyardgrass plant response rating (0 to 100 scale, 0 is no effect, 100 is complete control) [15]: 0; Barnyardgrass plant response rating [15, 22]: 0; Plant response rating, Foxtail, Giant [16, 21]: 0; Plant response rating, Foxtail, Giant [16, 22]: 10; Pigweed plant response rating (0 to 100 scale) [17]: 0; Pigweed plant response rating [17, 22]: 0; Plant response rating, Pigweed [18, 21]: 10; Plant response rating, Pigweed [18, 22]: 20
CNN=Cc1cccc(Oc2ncc(Cl)cn2)c1-n1cc(Cl)cn1 [Compound 296]	0	20	0	0	10	0	0	60	0	10	20	20	30	30	0	0	0	0	0	0	Velvetleaf plant response rating (0 to 100 scale) [11]: 0; Velvetleaf plant response rating [11, 22]: 10; Plant response rating, Barnyardgrass [12, 21]: 0; Plant response rating, Barnyardgrass [12, 22]: 0; Morningglory plant response rating (0 to 100 scale) [13]: 0; Morningglory plant response rating [13, 22]: 0; Plant response rating, Crabgrass, Large [14, 21]: 0; Plant response rating, Crabgrass, Large [14, 22]: 0; Barnyardgrass plant response rating (0 to 100 scale, 0 is no effect, 100 is complete control) [15]: 0; Barnyardgrass plant response rating [15, 22]: 10; Plant response rating, Foxtail, Giant [16, 21]: 0; Plant response rating, Foxtail, Giant [16, 22]: 0; Pigweed plant response rating (0 to 100 scale) [17]: 0; Pigweed plant response rating [17, 22]: 90; Plant response rating, Pigweed [18, 21]: 30; Plant response rating, Pigweed [18, 22]: 100
C[Si](C)(C)c1cn(-c2ccccc2Oc2ncc(Cl)cn2)nn1 [Compound 297]			0			0													0	0	Plant response rating, Wheat [1, 23]: 0; Plant response rating, Corn [3, 23]: 0; Crabgrass, Large plant response rating [5, 24]: 90; Foxtail, Giant plant response rating [6, 24]: 80; Plant response rating, Morningglory [7, 23]: 30; Plant response rating, Velvetleaf [8, 23]: 60; Corn plant response rating [9, 24]: 0; Wheat plant response rating [10, 24]: 0; Velvetleaf plant response rating [11, 24]: 50; Plant response rating, Barnyardgrass [12, 23]: 10; Morningglory plant response rating [13, 24]: 0; Plant response rating, Crabgrass, Large [14, 23]: 30; Barnyardgrass plant response rating [15, 24]: 10; Plant response rating, Foxtail, Giant [16, 23]: 10; Pigweed plant response rating [17, 24]: 70; Plant response rating, Pigweed [18, 23]: 70
CCOC(=O)c1cnn(-c2c(C#N)cccc2Oc2ncc(Cl)cn2)c1 [Compound 301]	0	0	0	0	0	0	0	0	0	0	0	0	0	0	0	0	0	0	0	0	Velvetleaf plant response rating (0 to 100 scale) [11]: 0; Velvetleaf plant response rating [11, 22]: 0; Plant response rating, Barnyardgrass [12, 21]: 0; Plant response rating, Barnyardgrass [12, 22]: 0; Morningglory plant response rating (0 to 100 scale) [13]: 0; Morningglory plant response rating [13, 22]: 0; Plant response rating, Crabgrass, Large [14, 21]: 0; Plant response rating, Crabgrass, Large [14, 22]: 0; Barnyardgrass plant response rating (0 to 100 scale, 0 is no effect, 100 is complete control) [15]: 0; Barnyardgrass plant response rating [15, 22]: 0; Plant response rating, Foxtail, Giant [16, 21]: 0; Plant response rating, Foxtail, Giant [16, 22]: 0; Pigweed plant response rating (0 to 100 scale) [17]: 0; Pigweed plant response rating [17, 22]: 0; Plant response rating, Pigweed [18, 21]: 0; Plant response rating, Pigweed [18, 22]: 30
